Where two headings read alike, the source gives them in different places.
Legend:
influenza A/HK/68 = assay: Lethal influenza challenge model, intranasal monotherapy; conditions: i.n.; for protection against influenza challenge over dose range: doses up to 40 μg, FIG. 12; for protection against influenza challenge, compared by secondary fatty acid chains: FIG. 11, FIG. 13
Protocol: A dose of 20 μg MonoPhosphoryl Lipid A (MPL) was given to groups of female BALB/c mice by intranasal (i.n.) administration either 2 days prior to or the day of lethal influenza challenge. All mice were challenged with approximately 2 LD50 infectious influenza A/HK/68 administered i.n. Mortality was monitored for 21 days following influenza challenge.
A dose of 20 μg L-Seryl AGPs (RC-526, RC-554, RC-555, RC-537, RC-527, RC-538, RC-560, RC-512 and vehicle only) was given to groups of female BALB/c mice by intranasal (i.n.) administration 2 days prior to or the day of lethal influenza challenge. All mice were challenged with approximately 2 LD50 infectious influenza A/HK/68 administered i.n. The disease index (ruffled fur, hunched posture and labored breathing) was monitored during days 4-19 following influenza challenge. Weight loss and mortality were monitored for 21 days following influenza challenge.

human whole blood = type: cell-based; conditions: for IL10/TNFα cba: ratio of IL-10 to TNF; for TNFα/IL10 cba: ratio of TNF to IL-10
[1] = test system: Ogawa P. gingivalis LPS stimulated whole blood cells; assay: Inhibition of LPS-induced cytokines in whole blood; type: cell-based, human; conditions: 10, 5, 2.5 ug/mL
Source text: Table 4 provides the maximum levels of IL-4, IL-2 and IL-5 obtained, as well as ratios of TNF to IL-10, and ratios of IL-10 to TNF. Inhibition data for IL-8, reported as a percentage, are also provided on the right hand side of Table 4. For example, 90% inhibition would calculate to a 90% reduction of cytokine levels. MIP-1β results were similar. […]

human PBMCs = assay: Lineage specific cell surface activation markers in human PBMCs; type: cell-based; conditions: LPS 10 ng/ml, RC-526 or RC-527 10 μg/ml
Protocol: This experiment describes lineage specific cell surface activation markers in human PBMCs activated with LPS or selected AGPs. PBMCs were harvested from a normal donor and plated at 1×10^7 cells/well in a […] (6 well plate) with 3 ml RPMI. LPS (10 ng/ml), RC-526 (10 μg/ml) or RC-527 (10 μg/ml) were added to each of 4 wells. Cells were harvested from each of 2 wells at 4 hr and 24 hr following activation and immediately stained for the lineage and cell surface activation markers.

[2] = test system: L. monocytogenes 10403 serotype; assay: Murine Listeria monocytogenes challenge model; type: in vivo, Mice; conditions: 1 μg intravenously in 0.2% TEOA, challenge two days later; FIGS. 14-17
Protocol: This example provides experiments evaluating the induction of non-specific resistance in the murine Listeria monocytogenes challenge model performed using various AGPs and MPL. Mice (5 per group) were treated intravenously with the 1 μg of an AGP or MPL solubilized in 0.2% TEOA. Two days later the mice were challenged intravenously with a ˜10^5 L. monocytogenes 10403 serotype (provided by M. L. Gray, Montana State University, Bozeman, Mont.). Two days after the challenge, the mice were sacrificed and the number of colony forming units (CFUs) in the spleens of individual mice were determined by plating 10-fold serial dilutions of splenic homogenates on tryptic soy agar plates. The degree of protection afforded by a given AGP or MPL was calculated by subtracting the average number of bacteria per spleen (log 10 value) in the group of mice treated with a given compound, from the average number of bacteria per spleen (log 10 value) in a control group that was “sham” treated with vehicle (0.2% TEOA) prior to challenge with L. monocytogenes.

[3] = test system: human peripheral blood mononuclear cells (PBMC); assay: Cytokine elaboration from frozen human PBMC (ELISA); type: cell-based; conditions: PBMC donor AD112, 22 hours; FIG. 9
Protocol: PBMC were stored frozen until used. PBMC donor designation was AD112. PBMC at a density of 6.26×10^5 were plated per well in a 48 well plate in 1.0 ml of medium. Medium consisted of RPMI-1640 plus sodium bicarbonate, 10% fetal bovine serum, 4 mM glutamine, 100 ug/ml gentamicin and 10 mM HEPES. PBMC were cultured for 22 hours at 37° C. in a carbon dioxide incubator. Supernatants were harvested and tested by ELISA (R&D Systems) for IL-6, IL-8, IL-10 and MIP-1 beta concentration. Cytokine concentration in supernatants was compared to supernatants obtained from unstimulated PBMC cultured identically.

SMILES	protection against influenza challenge over dose range (influenza A/HK/68)	IL-1β cba2 (human whole blood; donor 1)	IL10/TNFα cba (human whole blood; donor 2)	TNFα/IL10 cba (human whole blood; donor 2)	% inhib. LPS IL-8 [1] [%]	CD3+ CD69+ percent expression in NK-Cells (CD56+) (human PBMCs; 4 hr activation) [%]	CD25+ percent expression in B-cells (CD19+) (human PBMCs; 4 hr activation) [%]	CD25+ percent expression in Mono/Macs (CD14+) (human PBMCs; 4 hr activation) [%]	CD69+ percent expression in B-cells (CD19+) (human PBMCs; 4 hr activation) [%]	CD69+ percent expression in Mono/Macs (CD14+) (human PBMCs; 4 hr activation) [%]	CD69+ percent expression in NK-Cells (CD56+) (human PBMCs; 4 hr activation) [%]	CD69+ percent expression in T-cells (CD3+) (human PBMCs; 4 hr activation) [%]	CD86+ percent expression in B-cells (CD19+) (human PBMCs; 4 hr activation) [%]	CD95+ percent expression in B-cells (CD19+) (human PBMCs; 4 hr activation) [%]	MFI CD11b+ in Mono/Macs (CD14+) (human PBMCs; 4 hr activation)	MFI CD54+ (ICAM-1) in B-cells (CD19+) (human PBMCs; 4 hr activation)	MFI CD54+(ICAM-1) in Mono/Macs (CD14+) (human PBMCs; 4 hr activation)	TLR2+ percent expression in Mono/Macs (CD14+) (human PBMCs; 4 hr activation) [%]	IL10/TNFα cba (human whole blood; donor 1)	TNFα/IL10 cba (human whole blood; donor 1)	other results
CCCCCCCCCCC[C@H](CC(=O)N[C@H]1[C@H](OC[C@H](NC(=O)C[C@@H](CCCCCCCCCCC)OC(=O)CCCCC)C(=O)O)O[C@H](CO)[C@@H](OP(=O)(O)O)[C@@H]1OC(=O)C[C@@H](CCCCCCCCCCC)OC(=O)CCCCC)OC(=O)CCCCC.CCN(CC)CC [RC-526]	no difference in protection up to doses of 40 μg	256	1.2	0.9	99	1	0	1	11	1	4	1	4	6	2154	55	502	93	–	–	cytokine stimulation in human whole blood cultures (human whole blood; overnight culture): little if any cytokine stimulation; CD3+ CD69+ percent expression in NK-Cells (CD56+) (human PBMCs; 24 hr activation): 2%; CD14+ CD25+ percent expression in Mono/Macs (CD14+) (human PBMCs; 24 hr activation): 1%; CD14+ CD69+ percent expression in Mono/Macs (CD14+) (human PBMCs; 24 hr activation): 2%; CD14+ TLR2+ percent expression in Mono/Macs (CD14+) (human PBMCs; 24 hr activation): 79%; CD19+ CD25+ percent expression in B-Cells (CD19+) (human PBMCs; 24 hr activation): 9%; CD19+ CD69+ percent expression in B-Cells (CD19+) (human PBMCs; 24 hr activation): 22%; CD19+ CD86+ percent expression in B-Cells (CD19+) (human PBMCs; 24 hr activation): 22%; CD19+ CD95+ percent expression in B-Cells (CD19+) (human PBMCs; 24 hr activation): 15%; CD69+ percent expression in NK-Cells (CD56+) (human PBMCs; 24 hr activation): 4%; CD69+ percent expression in T-cells (CD3+) (human PBMCs; 24 hr activation): 2%; MFI CD11b+ in Mono/Macs (CD14+) (human PBMCs; 24 hr activation): 1986; MFI CD54+ (ICAM-1) in B-cells (CD19+) (human PBMCs; 24 hr activation): 118; MFI CD54+(ICAM-1) in Mono/Macs (CD14+) (human PBMCs; 24 hr activation): 1590
CCCCCCCCCCC[C@H](CC(=O)N[C@H]1[C@H](OC[C@H](NC(=O)C[C@@H](CCCCCCCCCCC)OC(=O)CCCCCCCCC)C(=O)O)O[C@H](CO)[C@@H](OP(=O)(O)O)[C@@H]1OC(=O)C[C@@H](CCCCCCCCCCC)OC(=O)CCCCCCCCC)OC(=O)CCCCCCCCC.CCN(CC)CC [RC-527]	maximum protection over a dose range of 2.5 μg to 40 μg	7102	0.3	3.4	5	11	0	1	56	22	40	10	8	7	1870	65	743	85	0.4	2.5	protection against L. monocytogenes challenge (reduction of log 10 bacteria per spleen vs vehicle) [2]: protection that was equal to or greater than that provided by MPL; CD3+ CD69+ percent expression in NK-Cells (CD56+) (human PBMCs; 24 hr activation): 16%; CD14+ CD25+ percent expression in Mono/Macs (CD14+) (human PBMCs; 24 hr activation): 70%; CD14+ CD69+ percent expression in Mono/Macs (CD14+) (human PBMCs; 24 hr activation): 22%; CD14+ TLR2+ percent expression in Mono/Macs (CD14+) (human PBMCs; 24 hr activation): 97%; CD19+ CD25+ percent expression in B-Cells (CD19+) (human PBMCs; 24 hr activation): 34%; CD19+ CD69+ percent expression in B-Cells (CD19+) (human PBMCs; 24 hr activation): 66%; CD19+ CD86+ percent expression in B-Cells (CD19+) (human PBMCs; 24 hr activation): 51%; CD19+ CD95+ percent expression in B-Cells (CD19+) (human PBMCs; 24 hr activation): 73%; CD69+ percent expression in NK-Cells (CD56+) (human PBMCs; 24 hr activation): 50%; CD69+ percent expression in T-cells (CD3+) (human PBMCs; 24 hr activation): 10%; MFI CD11b+ in Mono/Macs (CD14+) (human PBMCs; 24 hr activation): 1611; MFI CD54+ (ICAM-1) in B-cells (CD19+) (human PBMCs; 24 hr activation): 211; MFI CD54+(ICAM-1) in Mono/Macs (CD14+) (human PBMCs; 24 hr activation): 4445
CCCCCCCCCCCCCC(=O)O[C@H](CCCCCCCCCCC)CC(=O)NCCO[C@@H]1O[C@H](CO)[C@@H](OP(=O)(O)O)[C@H](OC(=O)C[C@@H](CCCCCCCCCCC)OC(=O)CCCCCCCCCCCCC)[C@H]1NC(=O)C[C@@H](CCCCCCCCCCC)OC(=O)CCCCCCCCCCCCC.CCN(CC)CC [RC-529]	–	–	–	–	–	–	–	–	–	–	–	–	–	–	–	–	–	–	6.2	0.4	IL-6 elaboration compared to MPL [3]: induced more IL-6, IL-10 and MIP-1 beta than did MPL; IL-10 elaboration compared to MPL [3]: induced more IL-6, IL-10 and MIP-1 beta than did MPL; MIP-1 beta elaboration compared to MPL [3]: induced more IL-6, IL-10 and MIP-1 beta than did MPL
CCCCCCCCCCC[C@H](CC(=O)N[C@H](CO)CCO[C@@H]1O[C@H](CO)[C@@H](OP(=O)(O)O)[C@H](OC(=O)C[C@@H](CCCCCCCCCCC)OC(=O)CCCCCCCCC)[C@H]1NC(=O)C[C@@H](CCCCCCCCCCC)OC(=O)CCCCCCCCC)OC(=O)CCCCCCCCC.CCN(CC)CC [RC-540]	–	–	5.2	0.2	–	–	–	–	–	–	–	–	–	–	–	–	–	–	5.5	0.2	protection against L. monocytogenes challenge (reduction of log 10 bacteria per spleen vs vehicle) [2]: protection that was equal to or greater than that provided by MPL
CCCCCCCCCCC[C@H](CC(=O)N[C@H]1[C@H](OC[C@H](NC(=O)C[C@@H](CCCCCCCCCCC)OC(=O)CCCCCCCCC)C(=O)O)O[C@H](CO)[C@@H](OP(=O)(O)O)[C@@H]1OC(=O)C[C@@H](CCCCCCCCCCC)OC(=O)CCCCCCCCC)OC(=O)CCCCC.CCN(CC)CC [RC-565]	–	–	–	–	16	–	–	–	–	–	–	–	–	–	–	–	–	–	–	–	protection against influenza challenge, compared by secondary fatty acid chains (influenza A/HK/68): more protective than those having fewer
CCCCCCCCCCC[C@H](CC(=O)N[C@H]1[C@H](OC[C@H](NC(=O)C[C@@H](CCCCCCCCCCC)OC(=O)CCCCC)C(=O)O)O[C@H](CO)[C@@H](OP(=O)(O)O)[C@@H]1OC(=O)C[C@@H](CCCCCCCCCCC)OC(=O)CCCCCCCCC)OC(=O)CCCCCCCCC.CCN(CC)CC [RC-569]	–	–	–	–	−13	–	–	–	–	–	–	–	–	–	–	–	–	–	–	–	protection against influenza challenge, compared by secondary fatty acid chains (influenza A/HK/68): more protective than those having fewer
